Data taken from ChEMBL document CHEMBL1201862, “PubChem BioAssay data set” (2004).
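Values below derive from 48-hour exposures of cells grown in 96-well plates, with endpoints linearly interpolated between the two concentrations bracketing the appropriate inhibition level. GI50 = concentration required for 50% inhibition of growth.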 The source made the active and inactive calls. No stated cut-off is given here; in the data, active = GI50 up to about 1.1 µM and inactive = higher. Numbered stars: 1 amine (or outer) side, 2 acyl side, 3 side chain; on linkers, the order of the positions; unused ones are H or OH. Square brackets hold non-standard residues; d marks the D form. Peptide text beside a SMILES is read from it. X55 = CC[C@H](C)[C@H](OC(=O)[C@@H](C)[C@@H](CC)N[*:1])C(=O)[*:2]; X31 = C[C@H](N[*:1])C(=O)C(C)(C)C(=O)[*:2]; NMeY = CN[C@@H](Cc1ccc(O)cc1)C(=O)O; NMeL = CN[C@@H](CC(C)C)C(=O)O; NMeV = CN[C@H](C(=O)O)C(C)C

Assays:
Assay in all cases: NCI anticancer screen, dose series, 48 h
[1] = system: SK-MEL-2
[2] = system: SW-620
[3] = system: UO-31
[4] = system: NCI-H460
[5] = system: SN12C
[6] = system: OVCAR-8
[7] = system: NCI/ADR-RES
[8] = system: IGROV-1
[9] = system: NCI-H226
[10] = system: K562
[11] = system: Malme-3M
[12] = system: MDA-MB-435
[13] = system: CAKI-1
[14] = system: LOX IMVI
[15] = system: HOP-92
[16] = system: SF-295
[17] = system: DU-145
[18] = system: SK-MEL-5
[19] = system: CCRF-CEM
[20] = system: MCF7

Row | Compound | GI50 [1] | GI50 [2] | GI50 [3] | GI50 [4] | GI50 [5] | GI50 [6] | GI50 [7] | GI50 [8] | GI50 [9] | GI50 [10] | GI50 [11] | GI50 [12] | GI50 [13] | GI50 [14] | GI50 [15] | GI50 [16] | GI50 [17] | GI50 [18] | GI50 [19] | GI50 [20]
1 | COC(=O)c1cc(C)ccc1CC(Cc1ccc(C)cc1)C(=O)OC (configuration not stated) | 25.1 µM (inactive) | 23.5 µM (inactive) | 17.1 µM (inactive) | 40.4 µM (inactive) | > 65.5 µM (inactive) | > 66.8 µM (inactive) | 23.7 µM (inactive) | 72.4 µM (inactive) | > 47.4 µM (inactive) | 3.18 µM (inactive) | 22 µM (inactive) | 31 µM (inactive) | 36.6 µM (inactive) | 19.1 µM (inactive) | 8.95 µM (inactive) | 27.3 µM (inactive) | > 33 µM (inactive) | 3.48 µM (inactive) | 62.8 µM (inactive) | 26.3 µM (inactive)
2 | CC[C@H](C)[C@@H]1OC(=O)[C@@H](C)[C@@H](CC)NC(=O)[C@H](C)NC(=O)C(C)(C)C(=O)[C@H](C)NC(=O)[C@H](Cc2ccc(OC)cc2)N(C)C(=O)[C@H](C(C)C)N(C)C(=O)CNC(=O)[C@H](CC(C)C)N(C)C(=O)CNC1=O [DOLASTATIN 11] (cyclo(A[X55]G[NMeL]G[NMeV][NMeY](Me)[X31])) | 0.0787 µM (active) | 0.286 µM (active) | 0.169 µM (active) | 0.00115 µM (active) | 0.194 µM (active) | 0.101 µM (active) | 0.802 µM (active) | 0.0355 µM (active) | 0.137 µM (active) | 0.0885 µM (active) | 0.13 µM (active) | 0.0603 µM (active) | 0.034 µM (active) | 0.01 µM (active) | 0.0752 µM (active) | 0.0838 µM (active) | 0.118 µM (active) | 0.0247 µM (active) | 0.0274 µM (active) | 0.0592 µM (active)
3 | COC(=O)[C@@H]1[C@H]2CC[C@]3(C)[C@@H](OC(C)=O)CC[C@H]3[C@@H]2CC[C@H]1C(C)=O | > 100 µM (inactive) | > 100 µM (inactive) | > 100 µM (inactive) | > 100 µM (inactive) | > 100 µM (inactive) | > 100 µM (inactive) | > 100 µM (inactive) | > 100 µM (inactive) | > 100 µM (inactive) | > 100 µM (inactive) | > 100 µM (inactive) | > 100 µM (inactive) | > 100 µM (inactive) | > 100 µM (inactive) | > 100 µM (inactive) | > 100 µM (inactive) | > 100 µM (inactive) | > 100 µM (inactive) | > 100 µM (inactive) | > 100 µM (inactive)
4 | C=C1CN(Cc2ccccc2)[C@@H]2CCCCC[C@H](C#N)[C@H]12 | > 100 µM (inactive) | > 94.8 µM (inactive) | > 63.4 µM (inactive) | > 78.2 µM (inactive) | > 100 µM (inactive) | > 68.4 µM (inactive) | > 77.4 µM (inactive) | > 100 µM (inactive) | > 69.3 µM (inactive) | 47.2 µM (inactive) | > 100 µM (inactive) | > 76 µM (inactive) | > 100 µM (inactive) | 95.9 µM (inactive) | 36.3 µM (inactive) | > 21.2 µM (inactive) | > 100 µM (inactive) | > 100 µM (inactive) | 24.9 µM (inactive) | > 100 µM (inactive)
5 | CC(=O)OCCn1c(Cc2ccc(Cl)cc2)nn(C(C)=O)c1=O | > 100 µM (inactive) | > 100 µM (inactive) | > 100 µM (inactive) | > 100 µM (inactive) | > 100 µM (inactive) | > 100 µM (inactive) | > 100 µM (inactive) | > 100 µM (inactive) | > 100 µM (inactive) | > 100 µM (inactive) | > 100 µM (inactive) | > 100 µM (inactive) | > 100 µM (inactive) | > 100 µM (inactive) | > 100 µM (inactive) | > 100 µM (inactive) | > 100 µM (inactive) | > 100 µM (inactive) | > 100 µM (inactive) | > 100 µM (inactive)
6 | CC1=C2NCN(C)N=C2C(C#N)(C#N)C1(C#N)C#N | > 61.7 µM (inactive) | 10.2 µM (inactive) | 18.4 µM (inactive) | – | 19.5 µM (inactive) | 27 µM (inactive) | 28.6 µM (inactive) | 24.8 µM (inactive) | > 50.7 µM (inactive) | 3.78 µM (inactive) | 20.4 µM (inactive) | 21.7 µM (inactive) | 5.97 µM (inactive) | 20.8 µM (inactive) | 15.4 µM (inactive) | > 100 µM (inactive) | 42.3 µM (inactive) | 27.4 µM (inactive) | 2.22 µM (inactive) | 19.8 µM (inactive)
7 | CCOC(=O)C1=CC(C)(C(=O)OCC)Nc2c(nc(OC)n(C)c2=O)N1 (configuration not stated) | > 10 µM (inactive) | > 10 µM (inactive) | > 10 µM (inactive) | > 10 µM (inactive) | > 10 µM (inactive) | > 10 µM (inactive) | > 10 µM (inactive) | > 10 µM (inactive) | > 10 µM (inactive) | > 10 µM (inactive) | > 10 µM (inactive) | > 10 µM (inactive) | > 10 µM (inactive) | > 10 µM (inactive) | > 10 µM (inactive) | > 10 µM (inactive) | > 10 µM (inactive) | > 10 µM (inactive) | > 10 µM (inactive) | > 10 µM (inactive)
8 | COC1(OC)N=C(N)C2(C#N)C(c3ccccc3)NC3=C(CCC3)C12C#N (configuration not stated) | > 100 µM (inactive) | > 100 µM (inactive) | > 100 µM (inactive) | > 100 µM (inactive) | > 100 µM (inactive) | > 100 µM (inactive) | > 100 µM (inactive) | > 100 µM (inactive) | > 100 µM (inactive) | – | > 100 µM (inactive) | > 100 µM (inactive) | > 100 µM (inactive) | > 100 µM (inactive) | > 100 µM (inactive) | > 100 µM (inactive) | > 100 µM (inactive) | > 100 µM (inactive) | > 100 µM (inactive) | > 100 µM (inactive)
9 | CCOC(=O)/C(C#N)=C/Nc1c(C)n(C)n(-c2ccccc2)c1=O | > 100 µM (inactive) | > 100 µM (inactive) | > 100 µM (inactive) | – | > 100 µM (inactive) | > 100 µM (inactive) | 47.6 µM (inactive) | > 100 µM (inactive) | 43.4 µM (inactive) | > 100 µM (inactive) | > 100 µM (inactive) | > 100 µM (inactive) | > 100 µM (inactive) | > 100 µM (inactive) | > 100 µM (inactive) | > 100 µM (inactive) | > 100 µM (inactive) | > 100 µM (inactive) | > 100 µM (inactive) | > 100 µM (inactive)
10 | CCCC(=O)NC(Nc1cc(C)ccn1)(C(=O)OCC)C(F)(F)F (configuration not stated) | > 100 µM (inactive) | > 100 µM (inactive) | > 100 µM (inactive) | – | > 100 µM (inactive) | > 100 µM (inactive) | > 100 µM (inactive) | > 100 µM (inactive) | > 100 µM (inactive) | > 100 µM (inactive) | > 100 µM (inactive) | > 100 µM (inactive) | > 100 µM (inactive) | > 100 µM (inactive) | 91 µM (inactive) | > 100 µM (inactive) | > 100 µM (inactive) | > 100 µM (inactive) | > 100 µM (inactive) | > 100 µM (inactive)
11 | O=C1c2ccccc2-n2c1nc1cc(Cl)ccc1c2=O | 43.9 µM (inactive) | – | > 100 µM (inactive) | 30.3 µM (inactive) | > 100 µM (inactive) | 36.8 µM (inactive) | > 100 µM (inactive) | 33.3 µM (inactive) | > 100 µM (inactive) | 4.05 µM (inactive) | 6.7 µM (inactive) | 2.02 µM (inactive) | 36.8 µM (inactive) | 14 µM (inactive) | 71.6 µM (inactive) | 50.7 µM (inactive) | 24.1 µM (inactive) | 20 µM (inactive) | 3.84 µM (inactive) | > 100 µM (inactive)
12 | Cc1nc(-c2ccc([N+](=O)[O-])cc2)cn2c1nc1ccccc12 | 31.1 µM (inactive) | > 100 µM (inactive) | > 100 µM (inactive) | > 100 µM (inactive) | > 100 µM (inactive) | > 100 µM (inactive) | > 100 µM (inactive) | > 100 µM (inactive) | > 100 µM (inactive) | > 100 µM (inactive) | > 100 µM (inactive) | > 100 µM (inactive) | > 100 µM (inactive) | > 100 µM (inactive) | 70.5 µM (inactive) | 76.9 µM (inactive) | > 100 µM (inactive) | – | > 100 µM (inactive) | 58.3 µM (inactive)
13 | COC(=O)/C(C#N)=C(\Nc1ccccc1)N1CCCCC1 | > 100 µM (inactive) | > 100 µM (inactive) | > 100 µM (inactive) | > 100 µM (inactive) | > 100 µM (inactive) | > 100 µM (inactive) | > 100 µM (inactive) | > 100 µM (inactive) | > 100 µM (inactive) | > 100 µM (inactive) | > 100 µM (inactive) | > 100 µM (inactive) | > 100 µM (inactive) | > 100 µM (inactive) | > 100 µM (inactive) | > 100 µM (inactive) | > 100 µM (inactive) | > 100 µM (inactive) | – | > 100 µM (inactive)
14 | CC1=NN(c2ccccc2Cl)C2(C1)C(Cl)C(=O)N2c1nc2ccccc2s1 (configuration not stated) | 48.9 µM (inactive) | 63.4 µM (inactive) | 61.8 µM (inactive) | 79.6 µM (inactive) | 31.8 µM (inactive) | 38.1 µM (inactive) | 65 µM (inactive) | 42.1 µM (inactive) | 50.5 µM (inactive) | 37.5 µM (inactive) | 92.5 µM (inactive) | 41.8 µM (inactive) | 50.2 µM (inactive) | 15.5 µM (inactive) | 88.7 µM (inactive) | 61.8 µM (inactive) | 47.2 µM (inactive) | 32.3 µM (inactive) | – | 44.8 µM (inactive)
